The results in this text go back to US8222275B2, “Biarylcarboxyarylamides as vanilloid-1 receptor modulators” (Pharmeste S.R.L., priority 2006, dated 2012).

Data set [1] addresses T1, TRPV1 expressing dorsal root ganglia neurons (Rattus norvegicus, UniProt O35433).
T1 construct: Dorsal root ganglia were removed and placed in cold phosphate buffered solution; endogenous in cells; host or cells: primary cultured rat dorsal root ganglia neurons
As to the kind of experiment: Ca2+ fluorescence measurements in cultured rat dorsal root ganglia neurones. The class given is cell-based. To be noted: 0.1 μM capsaicin, mean and 95% fiducial limits, read-out: IC50 for inhibition of capsaicin-evoked [Ca2+]i mobilization. The protocol: Ca^2+ Fluorescence Measurements in Cultured Rat Dorsal Root Ganglia Neurones
Adults rats were terminally anaesthetized and decapitated. Dorsal root ganglia were removed and placed in cold phosphate buffered solution (PBS) before being transferred to collagenase (10 mg/ml), trypsin (5 mg/ml) and DNAse (1 mg/ml) for 35 min at 37° C. The ganglia, placed in cold DMEM supplemented with 10% fetal bovine serum, 2 mM L-glutamine, 100 U/ml penicillin and 100 μg/ml streptomycin, were dissociated in single cells by several passages through a series of syringe needles (23 G down to 25 G). The medium and the ganglia were filtered to remove debris, topped up with 8 ml of DMEM medium and centrifuged (200×g for 5 min). The final cell pellet was re-suspended in DMEM medium [supplemented with 100 ng/ml mouse Nerve Growth Factor (mouse-NGF-7S) and cytosine-β-D-arabinofuranoside free base (ARA-C) 2.5 μM]. […] Fura-2-AM-ester was excited at […] to indicate relative [Ca^2+]i changes by the F340/F380 ratio recorded with a dynamic image analysis system (Laboratory Automation 2.0, RCS, Florence, Italy) and the cells were allowed (at least 10 min) to attain a stable fluorescence before beginning the experiment. […]

The test system of data set [2] is capsaicin-induced tactile allodynia. As to the kind of experiment: Capsaicin-induced secondary allodynia in rat. The class given is in vivo. To be noted: 30 μmol/kg oral 2 hours prior to capsaicin (20 nmols/50 μl/paw), evaluated 90 min after challenge. The protocol:
Capsaicin-Induced Secondary Allodynia in Rat
Capsaicin (20 nmols/50 μl/paw) was injected in the plantar surface of the glabrous skin of the right paw of rats anesthetized with diethyl ether (Chaplan et al., 1994). Compound V394 was orally administrated (30 μmol/kg) 2 hours prior to capsaicin injection. Tactile allodynia was evaluated 90 min after capsaicin challenge.

Data set [3] addresses T2, TRPV1 expressed in rat spinal cord (Rattus norvegicus, UniProt O35433).
T2 construct: TRPV1 expressed in rat spinal cord; from tissue; host or cells: rat (Sprague-Dawley) spinal cord membranes
As to the kind of experiment: Radioligand binding assay, [3H]-RTX, rat spinal cord membranes. As to the method: Radioligand Binding Assay
Male Sprague-Dawley rats with body weight between 250 to 350 g at the time for testing were used. For binding assays rats were sacrificed by decapitation under anesthesia and the spinal cord was removed and disrupted using a Polytron tissue homogenizer in ice cold buffer containing 5 mM KCl, 5.8 mM NaCl, 0.75 mM CaCl2, 2 mM MgCl2, 320 mM sucrose, 10 mM Hepes, pH 8.6.^5 The homogenized tissue was centrifuged at 1000×g for 10 min at 4° C. and the supernatant was centrifuged again at 35000×g for 30 min at 4° C. (Beckman Avanti J25). The pellet was resuspended in the same buffer as described above and used in binding experiments. In saturation experiments, 150 μg protein/sample from membrane suspensions were incubated with [^3H]-Resiniferatoxin ([^3H]-RTX) (0.003-3 nM) in the assay buffer containing 0.25 mg/ml fatty acid-free bovine serum albumin at 37° C. for 60 min. […]
Non specific binding was evaluated in the presence of 1 μM RTX. […] The tip of the microcentrifuge tube containing the pellet was cut off and the radioactivity was determined by scintillation counting (Packard 2500 TR). Protein concentration was determined according to a Bio-Rad method with bovine serum albumin as a standard reference (Bradford, 1976). Saturation and competition studies were analyzed with the Ligand program.^6

T2 sequence (O35433 whole entry): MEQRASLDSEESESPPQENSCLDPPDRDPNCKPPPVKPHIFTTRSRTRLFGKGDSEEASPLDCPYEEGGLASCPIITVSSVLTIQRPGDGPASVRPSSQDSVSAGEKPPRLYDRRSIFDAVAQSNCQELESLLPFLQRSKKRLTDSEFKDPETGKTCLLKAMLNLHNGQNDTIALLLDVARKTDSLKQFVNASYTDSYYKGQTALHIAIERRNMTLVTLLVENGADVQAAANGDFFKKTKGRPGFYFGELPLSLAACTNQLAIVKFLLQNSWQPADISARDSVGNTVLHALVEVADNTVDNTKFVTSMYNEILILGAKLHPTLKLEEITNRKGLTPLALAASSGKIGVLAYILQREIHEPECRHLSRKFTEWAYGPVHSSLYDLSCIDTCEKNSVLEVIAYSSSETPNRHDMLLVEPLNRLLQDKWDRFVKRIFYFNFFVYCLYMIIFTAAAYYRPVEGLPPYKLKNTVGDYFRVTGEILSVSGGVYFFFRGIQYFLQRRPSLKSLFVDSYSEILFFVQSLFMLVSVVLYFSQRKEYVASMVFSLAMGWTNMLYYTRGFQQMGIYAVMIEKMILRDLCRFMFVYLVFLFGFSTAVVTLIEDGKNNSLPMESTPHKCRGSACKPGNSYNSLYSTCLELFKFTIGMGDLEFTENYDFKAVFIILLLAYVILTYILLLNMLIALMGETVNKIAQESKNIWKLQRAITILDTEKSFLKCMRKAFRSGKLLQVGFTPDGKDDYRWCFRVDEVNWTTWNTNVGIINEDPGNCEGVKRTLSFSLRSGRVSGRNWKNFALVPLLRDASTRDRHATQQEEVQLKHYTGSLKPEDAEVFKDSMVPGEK
T1 sequence (O35433 whole entry): as above

For the molecule `O=C(Nc1ccc(Cl)cc1)c1ccc(-c2cccc3cnccc23)nc1` [V394, N-(4-chlorophenyl)-6-(isoquinolin-5-yl)pyridine-3-carboxamide], the melting point came out at 258 °C. Further, the IC50 in data set [1] came to 0.83 nM. Further, in data set [2], the “preventive effect against the pro-allodinic effect of capsaicin” value was determined as 55%. The inhibition constant Ki in data set [3] ([3H]RTX 0.4 nM, 37° C. 60 min, 95% fiducial limits in brackets, read-out: Ki value, competition binding of [3H]-RTX) stood at 15 nM.
Turning to `C=C(C)[C@]12C[C@@H](C)[C@@]34O[C@](Cc5ccccc5)(O[C@@H]1[C@@H]3C=C(COC(=O)Cc1ccc(O)c(OC)c1)C[C@]1(O)C(=O)C(C)=C[C@@H]41)O2` [[^3H]-RTX, [^3H]-Resiniferatoxin, reference compound], the Kd in data set [3] (saturation experiments, [3H]-RTX 0.003-3 nM, read-out: KD value, saturation curve of [3H]-RTX) came to 0.21 nM.
